Test results as given in patent US20060128577A1, “Use of alkoxylated hydroxycarboxylic acid esters for solubilizing perfume oils in water” (priority 2004, published 2006).

Experiment: Solubilizing effect of surfactants for perfume oil in water (10% by weight aqueous surfactant solution, perfume oil quantity before clouding)
Type: physicochemical
Conditions: 10% by weight aqueous solution of surfactant, higher = better solubilizing effect
Description: 1. In order to test the effect according to the invention, a 10% by weight aqueous solution of various surfactants was prepared. To this end, the surfactant was first mixed with the perfume oil and water was then added. The higher the percentage content of perfume oil, the better the solubilizing effect of the surfactant. In Table 1 below, V stands for known products and E for alkoxylated esters according to the invention.
Examples E1 and E2 according to the invention use a citric acid ester as described in 1.1 or 1.2.

## 2-Hydroxy-C12-(PO)1-(EO)9-glycol ether [Example V1a]
Perfume oil: Lemon oil terpene
  Quantity (% by wt.) before clouding: 4 % by wt.
Perfume oil: Octyl aldehyde
  Quantity (% by wt.) before clouding: 2 % by wt.
Perfume oil: Orange oil
  Quantity (% by wt.) before clouding: 4 % by wt.
